{
  "source": "patent US20190070266A1",
  "about": "(Novo Nordisk A/S, priority 2016, published 2019)",
  "tested_on": "adult human subjects with type 2 diabetes at high risk for cardiovascular events",
  "assay": "Same trial: adverse events by preferred term with frequency of at least 0.1%",
  "format": "in vivo",
  "details": "full analysis set",
  "description": "A long-term, multi-centre, international, randomised double-blind, placebo-controlled trial with 9340 human subjects was carried out with treatment for at least 3.5 years and up to 5 years per subject; and this trial concerned the incidence of cardiovascular events in adult human subjects with type 2 diabetes that were at high risk for cardiovascular events, including such subjects with existing cardiovascular disease. […] All trial endpoints were collected and assessed throughout the entire duration of the trial. Subject inclusion and exclusion criteria were as described in Table 2. The subject's characteristics, cardiovascular risk profile, renal function, cardiovascular medication, and antidiabetic treatment regimens of the randomised subjects at baseline were as shown in Tables 3a-e. Overall trial duration was planned as 18 months of recruitment period followed by 42 months of treatment from last subject randomised. […] After randomisation, treatment with liraglutide or placebo was double-blind throughout the trial. […] The term “placebo” as used herein refers to a formulation identical to the liraglutide formulation except not comprising liraglutide and the placebo was administered in the volume used in the equivalent liraglutide dosage. […] The dosage could be reduced at any time in the trial if required by the subject's tolerance to the trial product. […] The subcutaneous injection was made either in the abdomen, thigh or upper arm.\nThe term “baseline” herein (e.g. used as part of “baseline characteristics” or “baseline cardiovascular risk profile”) may refer to the level of a certain parameter (e.g. level of HbA1c) by the determination made in connection with the medical visit at the time of randomisation of the subject.\nThe results of this trial may be presented herein as a number or fraction of subjects experiencing an event. Alternatively, the results of this trial may be presented with hazard ratios estimated in a Cox proportional hazard model, which is the standard statistical model used for estimating time to an event. […] A 5% significance level is the standard level for investigating significance in clinical trials.",
  "key": {"[1]": {"details": "Preferred term: Diabetic foot infection"}},
  "data": [
    {"compound": "CCCCCCCCCCCCCCCC(=O)N[C@@H](CCC(=O)NCCCC[C@H](NC(=O)[C@H](C)NC(=O)[C@H](C)NC(=O)[C@H](CCC(N)=O)NC(=O)CNC(=O)[C@H](CCC(=O)O)NC(=O)[C@H](CC(C)C)NC(=O)[C@H](Cc1ccc(O)cc1)NC(=O)[C@H](CO)NC(=O)[C@H](CO)NC(=O)[C@@H](NC(=O)[C@H](CC(=O)O)NC(=O)[C@H](CO)NC(=O)[C@@H](NC(=O)[C@H](Cc1ccccc1)NC(=O)[C@@H](NC(=O)CNC(=O)[C@H](CCC(=O)O)NC(=O)[C@H](C)NC(=O)[C@@H](N)Cc1cnc[nH]1)[C@@H](C)O)[C@@H](C)O)C(C)C)C(=O)N[C@@H](CCC(=O)O)C(=O)N[C@@H](Cc1ccccc1)C(=O)N[C@H](C(=O)N[C@@H](C)C(=O)N[C@@H](Cc1c[nH]c2ccccc12)C(=O)N[C@@H](CC(C)C)C(=O)N[C@H](C(=O)N[C@@H](CCCNC(=N)N)C(=O)NCC(=O)N[C@@H](CCCNC(=N)N)C(=O)NCC(=O)O)C(C)C)[C@@H](C)CC)C(=O)O", "note": "[Liraglutide, Arg34,Lys26-(N-epsilon-(gamma-L-glutamyl(N-alfa-hexadecanoyl)))-GLP-1(7-37)]", "values": [
      {"measurement": "Adverse events by preferred term, % (proportion of subjects experiencing at least one event)", "setting": "[1]", "result": 0.3, "unit": "%"},
      {"measurement": "Adverse events by preferred term, R (rate, events per 100 PYO)", "setting": "[1]", "result": "<0.1", "unit": "events per 100 PYO"},
      {"measurement": "Adverse events by preferred term, % (proportion of subjects experiencing at least one event)", "setting": "Preferred term: Diabetic foot", "result": 2.8, "unit": "%"},
      {"measurement": "Adverse events by preferred term, R (rate, events per 100 PYO)", "setting": "Preferred term: Diabetic foot", "result": 1.0, "unit": "events per 100 PYO"},
      {"measurement": "Adverse events by preferred term, % (proportion of subjects experiencing at least one event)", "setting": "Preferred term: Gangrene", "result": 0.2, "unit": "%"},
      {"measurement": "Adverse events by preferred term, R (rate, events per 100 PYO)", "setting": "Preferred term: Gangrene", "result": "<0.1", "unit": "events per 100 PYO"},
      {"measurement": "Adverse events by preferred term, % (proportion of subjects experiencing at least one event)", "setting": "Preferred term: Skin ulcer", "result": 0.6, "unit": "%"},
      {"measurement": "Adverse events by preferred term, R (rate, events per 100 PYO)", "setting": "Preferred term: Skin ulcer", "result": 0.2, "unit": "events per 100 PYO"}
    ]}
  ]
}
